Results: US8158667B2, “Topical treatment of cataracts in dogs” (priority 2006, dated 2012)

Key:
accumulation of sorbitol = settings: fold more effective than sorbinil; '704 patent; cited from earlier work
aldose reductase = aldose reductase (Homo sapiens, UniProt P15121); settings: '704 patent; cited from earlier work
[1] = systemic half-life in dogs; settings: dog, in vivo
Source text: Topical administration of the ARI 2R,4S-6-fluoro-2-methyl-spiro[chroman-4,4′-imidazolidine]-2′,5′-dione (2-MS) is the preferred method for preventing cataracts and ocular complications in diabetic dogs and cats. As a result of the short, 3 hr systemic half-life of 2-MS in dogs and subsequent studies conducted in galactose-fed dogs, it is estimated that, at minimum, a multiple 4-times/day oral dose is required for efficacy. Topical application permits a lower dosage and a lower frequency of administration. Topical application will also minimize the tendency of diabetic dogs to have their liver functions compromised because topical administration will bypass first pass liver metabolism. The topical treatment of the present invention will not only arrest the progression of sugar cataracts, but also reduces the density of early cortical cataracts. […] The topical treatment should also delay the formation of other ocular diabetes associated complications associated with aldose reductase, as summarized above.

[2] = stability of 2R-MS in carbomer gel emulsion; format: physicochemical; settings: room temperature
Experimental: To maximize the topical administration of 2R-MS, vehicles or carriers of different viscosities comprised of polymers, gums, or viscosity enhancers were prepared. Formulations containing 3% of the AR inhibitor 2R-MS were prepared using the five different vehicles, which included 0.5% hydroxypropyl methylcellulose (HPMC); 0.5% xanthan gum; 0.5% gellan gum; 0.25% carbopol; and 0.25% carbopol (0.25% w/v)+0.25% HPMC. All were prepared in modified Sorensen's Phosphate Buffer, pH of 7.4. The drug and each vehicle were suspended directly in a sterile eye drop bottle by vortexing vigorously for at least one minute. […] All suspensions were vortexed prior to topical administration. An additional topical carbomer gel formulation consisting of 2.5% water soluble high molecular weight polymer of acrylic acid cross-linked with a polyether of sucrose was also developed. Carbomers are widely used in products for the treatment of dry eye. Crystalline 2R-MS was ground into a fine powder and mixed into an emulsion according to standard techniques.

| Structure (SMILES) | effectiveness in preventing the accumulation of sorbitol relative to sorbinil (accumulation of sorbitol) | inhibiting aldose reductase, compared with sorbinil (aldose reductase) | half-life [1] [h] | stability in the emulsion [2] |
| --- | --- | --- | --- | --- |
| CC1CC2(NC(=O)NC2=O)c2cc(F)ccc2O1 (stereo not shown) [2-methyl sorbinil, 6-fluoro-2-methyl-spiro-[chroman-4,4′-imidazolidine]-2′,5′-dione] | 2-10 times | more effective in inhibiting aldose reductase | – | – |
| C[C@@H]1C[C@]2(NC(=O)NC2=O)c2cc(F)ccc2O1 [2R-MS, 2R,4S-6-fluoro-2-methyl-spiro[chroman-4,4′-imidazolidine]-2′,5′-dione] | – | – | 3 | stable in the emulsion for a minimum of ten months |
